Where no end group is shown, it is not given here.
Columns and labels:
ATG3 [1] = test: Reaction (cross-linking) of Ubl activity-based probes with recombinant ATG3 and variants; assay type: biochemical, human; conditions: for Reaction with ATG3 C0: ATG3 C0 (no cysteines) 15 μM; for Reaction with ATG3 C1: ATG3 C1 (only active-site C264) 15 μM; for Reaction with ATG3 ΔLIR: ATG3 C1 ΔLIR (Δ95–111) 15 μM
Experimental: Figure 1 Modification of ATG3 with GABARAP ABPs depends on LIR^ATG3. a. Characterization of GABARAP activity-based probes, 1 and 2, obtained by hydrazide-acylation. Deconvoluted mass-spectrum (ESI) of GABARAP(ΔG116)–NHNH α-chloroacetyl 1. Expected mass 13707 Da. Deconvoluted mass-spectrum (ESI) of GABARAP(ΔG116)–NHNH methyl-fumarate 2. Expected mass 13743 Da. b. […] The reaction was allowed to proceed for 1 h and was analyzed by SDS-PAGE and Coomassie Blue staining. c. ColabFold-predicted structure of the protein-complex of ATG3 and GABARAP. Side-chain atoms are shown for the predicted LIR motif in ATG3 (90–112). d. Reaction of 2 (15 μM) with ATG3 variants C1, C0, and ΔLIR (15 μM). ATG3 C1 contains only active-site cysteine C264. ATG3 C0 contains no cysteines. ATG3 ΔLIR lacks amino acids 95–111. Reaction was allowed to proceed for 1 h and was analyzed by SDS-PAGE and Coomassie Blue staining. Full-gel images for b and d are available in the Supplementary Information.
We were intrigued by the cross-linking efficiency of 2 with ATG3 and sought to investigate the origin of this efficiency by generating a C1 variant of ATG3 that only contains the catalytic cysteine 264 and a corresponding C0 variant containing no cysteines. […] In general, the affinity of E2s for their cognate Ubls are quite low, as the thioester transfer from the E1 to the E2 enzyme is facilitated by additional interactions from the UFD domain of the E1 enzyme.[23] […]
Upon completion the solution was dialyzed against 25 mM
HEPES, 200 mM NaCl pH 7.2 at 4 °C. Cleaved intein was removed using gravity Ni-NTA purification.
The flow-through was collected and combined with resin washes. The combined fractions were dialyzed and further purified using ion exchange.
3.3. Generation of GABARAP and LC3A hydrazides from SUMO-GABARAP/LC3A-Mxe GyrA-
SUMO-GABARAP/LC3A-Mxe GyrA-His6 fusion after Ni-NTA purification was dialyzed against intein cleavage buffer (25 mM HEPES, 500 mM NaCl, 1 mM EDTA pH 7.2 at 4 °C). After dialysis hydrazine monohydrate (75 mM) and MESNa (10 mM) was added and the pH adjusted to 7.8. The solution was allowed to stand at room temperature and monitored using LC-MS analysis. Upon completion the solution was dialyzed against 25 mM HEPES, 500 mM NaCl pH 7.2 at 4 °C. SENP1 (1 wt%) was added to cleave the SUMO-tag. The cleaved intein was removed using gravity Ni-NTA purification. […]
dialyzed and further purified using cation exchange using a buffer 25 mM Tris pH 8.0 and a gradient of […] in the same buffer over 25 column volumes. The product fractions were pooled, concentrated, and stored at –80 °C until further use.
3.4. Synthesis of symmetrical anhydrides
The carboxylic acid was dissolved in CH2Cl2 (300 mM) and dicyclohexylcarbodiimide (0.5 eqiv) was added in one portion. The reaction was stirred under N2 for 18 h. The suspension was filtered and concentrated to ~10% of the initial volume. The solution was placed at 4 °C for 1 h and filtered again.
The filtrate was concentrated to obtain the symmetrical anhydride which was used without further purification. Anhydrides can be stored at –20 °C for weeks.
3.5. Reaction of modified Ubl probes with E2s
Ubl probes (15 μM) were mixed with E2s (15 μM) in PBS. The mixture was incubated at 37 °C in a water bath for 0.5-3 h. The reaction was quenched by addition of 2x Laemmli buffer and boiled at 95 °C for 5 min. Samples were resolved by SDS-PAGE (8-16%, Bio-Rad) and visualized by […]
Coomassie staining. […]

LC3A = target: T1, LC3A (Homo sapiens, UniProt Q9H492); test: Fluorescence polarization binding of fluorescein-modified LIR^ATG3 peptides to LC3A
T1 construct: His6-SUMO (pOPINS) (N, cleaved yes); made in house; host or cells: E. coli Rosetta-CodonPlus (DE3)-RIL
Source text: (§1) Figure 2 Characterization of LIR^ATG3. a. Reaction scheme outlining competition assay used for b, c, and d. b. Coomassie Blue-stained SDS-PAGE analysis for reaction of 2 with ATG3 C1 in the presence of varying concentrations of linear LIR^ATG3 peptide 5 as outlined in a. c. Coomassie Blue-stained SDS-PAGE analysis for reaction of 2 with ATG3 C1 in the presence of varying concentrations of cyclized LIR^ATG3 peptide 6 as outlined in a. d. Quantification of competition assays shown in b and c. The amount of GABARAP–ATG3 C1 complex was quantified by gel-densitometry and normalized to the reaction without peptide for each gel. […] Data are presented as average values ± s.d. e. Fluorescence polarization binding-data of fluorescein-modified LIR^ATG3 peptide binding to GABARAP. Either linear, cyclized, or truncated (103–111) LIR^ATG3 peptide was used. […] Fluorescence polarization data of fluorescein-modified LIR^ATG3 peptide binding to LC3A. […]
(§2) 3.13.Fluorescence polarization measurement
(§3) Fluorescent peptides were dissolved in DMSO and PBS. The concentration was determined by UV - absorption and extinction coefficient at 280 nm. […] Protein concentration was determined using UV-absorption and extinction coefficient at 280 nm. […]
(§4) 0.047 μM. […] Fluorescence polarization and intensity was measured on a Victor Nivo Plate Reader (Perkin Elmer). […]

GABARAP = target: T2, GABARAP (Homo sapiens, UniProt O95166); test: Fluorescence polarization binding of fluorescein-modified LIR^ATG3 peptides to GABARAP; conditions: response letter; truncated LIR peptide (103–111)
T2 construct: His6-SUMO (pOPINS) (N, cleaved yes); made in house; host or cells: E. coli Rosetta-CodonPlus (DE3)-RIL
Source text: as §1, §2, §3, §4

ATG3 [2] = test: Reaction (cross-linking) of Ubl activity-based probes with recombinant ATG3 and variants; assay type: biochemical, human; conditions: probe 15 μM; ATG3 wt, C264A and ΔLIR 5 μM; SDS-PAGE (Figure S9)

T2 sequence (O95166 whole entry, the tested form may be a part): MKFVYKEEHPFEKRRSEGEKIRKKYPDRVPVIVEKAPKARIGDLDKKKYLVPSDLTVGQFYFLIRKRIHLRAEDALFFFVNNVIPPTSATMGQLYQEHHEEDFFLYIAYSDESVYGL

## LC3A(ΔG120)–NHNH α-chloroacetyl [compound 3]
ATG3 [1]; probe 15 μM, SDS-PAGE
  Reaction with ATG3 C0: no reaction
  Reaction with ATG3 C1: efficient reaction
  Reaction with ATG3 ΔLIR: no reaction

## truncated LIR^ATG3: fluorescein-modified truncated (103–111) LIR^ATG3 peptide, amino acids G103-Y111 including the core LIR motif (GDGGWVDTY; also: fluorescein, position not given here)
LC3A; GABARAP or LC3A not stated, truncated (103–111) vs linear
  fold weaker binding of truncated peptide than linear peptide: 6 fold
LC3A; response letter, truncated LIR peptide lacking amino acids 104-95
  fold weaker affinity of truncated peptide, LC3A: > 8 fold
GABARAP
  fold weaker affinity of truncated peptide, GABARAP: > 8 fold

## GABARAP(ΔG116)–NHNH α-chloroacetyl [compound 1]
ATG3 [1]; ATG3 with or without LIR
  LIR dependence of cross-linking with ATG3: strictly dependent on LIR^ATG3
ATG3 [1]; probe 1 15 μM, ATG3 C1 or C0 15 μM, 1 h (Figure S2)
  Cross-linking with ATG3 C1 vs C0: Cross-linking was only observed for ATG3 C1
ATG3 [2]
  LIR dependence of ATG3 wild-type modification: dependent on LIRATG3

## Ub(ΔGG)–NHNH methyl fumarate [Ub(ΔGG) methyl fumarate probe, reference compound]
ATG3 [1]; probe 15 μM, ATG3 15 μM, 1 h, SDS-PAGE, Coomassie Blue
  Reaction with ATG3 wt: did not react

## LC3A(ΔG120)–NHNH methyl fumarate [compound 4]
ATG3 [1]; probe 15 μM, SDS-PAGE
  Reaction with ATG3 C0: no reaction
  Reaction with ATG3 C1: efficient reaction
  Reaction with ATG3 ΔLIR: no reaction

— paper PMC10214526, “Semisynthetic LC3 Probes for Autophagy Pathways Reveal a Noncanonical LC3 Interacting Region Motif Crucial for the Enzymatic Activity of Human ATG3” (ACS Central Science, 2023)
